One data set deals with dopamine-D2 (Homo sapiens, UniProt P14416). As to conditions: Janssen et al., J. Pharmacol. Exp. Ther. 244 (2):685-693 (1988); cited from earlier work.
The nature of data set [1]: Solubility in the real time in vitro dissolution receiving medium. As to conditions: 50 mM tris buffer, 37 °C, pH 7.4, aqueous buffer.

Sequence of dopamine-D2 (P14416 whole entry): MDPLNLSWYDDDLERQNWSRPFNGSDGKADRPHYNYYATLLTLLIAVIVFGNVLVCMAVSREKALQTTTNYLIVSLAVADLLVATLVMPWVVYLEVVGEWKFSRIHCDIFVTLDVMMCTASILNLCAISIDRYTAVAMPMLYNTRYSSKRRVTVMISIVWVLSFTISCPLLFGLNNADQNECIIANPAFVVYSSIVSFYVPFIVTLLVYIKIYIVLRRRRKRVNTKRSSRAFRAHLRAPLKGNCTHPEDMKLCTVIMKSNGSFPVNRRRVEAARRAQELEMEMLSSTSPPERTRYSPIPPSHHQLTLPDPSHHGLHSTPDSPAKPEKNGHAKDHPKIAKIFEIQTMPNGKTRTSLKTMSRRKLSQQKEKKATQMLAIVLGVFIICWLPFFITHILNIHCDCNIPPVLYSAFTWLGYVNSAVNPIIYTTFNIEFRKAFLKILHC

Take `Cc1nc2n(c(=O)c1CCN1CCC(c3noc4cc(F)ccc34)CC1)CCCC2` [Risperidone, 3-[2-[4-(6-fluoro-1,2-benzisoxazol-3-yl)-1-piperidinyl)ethyl]-6,7,8,9-tetrahydro-2-methyl-4H -pyrido[1,2-a]pyrimidin-4-one]: the “activity in tests related to dopamine-D2 antagonism” value on dopamine-D2 was “showed activity in all tests related to dopamine-D2 antagonism”. The solubility (usually the dissolved amount per volume that the medium holds) in data set [1] is ≥ 500 µg/mL.

(Values after patent publication US6368632B1, “Microencapsulated 3-piperidinyl-substituted 1,2-benzisoxazoles and 1,2-benzisothiazoles” (Janssen Pharmaceutica, priority 1993, dated 2002).)
